Like-named read-outs stand apart in the source and are kept apart here.
What was measured:
[1] = target: Avi-humanTEAD4 217-434 / Cy5 labeled humanYAP 60-100 (Homo sapiens (Human), UniProt Q15561); assay: TR-FRET YAP-TEAD4 in-vitro biochemical assay; format: binding; settings: 1 nM Avi-humanTEAD4 217-434, 20 nM Cy5-humanYAP 60-100, 1 h room temperature
[2] = system: NCI-H2052 Tet-On shYAP_2371 pLenti6 MCAT_Luc cells (YAP-dependent transcription); assay: YAP reporter gene activity assay (MCAT-luciferase), NCI-H2052; format: cell-based; settings: 24 hours incubation, BrightGlo luminescence
Protocol: (§1) This cell line was also transduced with a Tet-pLKO-puro-based construct mediating tetracycline-inducible expression of a short-hairpin directed against the 3′UTR of the YAP1 mRNA (5′-[…]-3′).
(§2) Stock solutions of compounds were prepared at a concentration of 10 mM in DMSO and stored at 4° C. Where necessary to afford a full dose-response curve, the stock solutions were pre-diluted in DMSO to 1'000-fold the desired reduced start concentration. On the day after cell seeding, eleven 2-fold serial dilutions of each compound were dispensed directly into the cell assay plates using a HP 300D non-contact Digital Dispenser (TECAN, Mannedorf, Switzerland). The final concentration of DMSO was normalized to 0.1% in all wells.
The ability of compounds to inhibit YAP-dependent transcription was assessed in NCI-H2052 Tet-On shYAP_2371 pLenti6 MCAT_Luc cells, while specificity (lack of unspecific inhibition of luciferase expression of activity) was assessed in MKN-45/Ubc-luc cells. […] Following incubation for 24 hours at 37° C., compound-mediated modulation of reporter-gene activity was quantified 5 min after addition of 20 μl BrightGlo (Promega, Cat #E2620), by measuring luminescence intensity on a multi-mode plate-reader (TECAN, Männedorf, Switzerland, Integration time 100 ms). For data analysis, the assay background value determined in wells containing medium, but no cells, was subtracted from all data points. Dose-dependent compound effects were expressed as % of vehicle-treated control (luminescence signal produced by cells receiving DMSO only) and IC50s calculated using a four-parametric fit model.

[3] = system: NCI-H2052 Tet-On shYAP_2371 pLenti6 MCAT_Luc cells; assay: Proliferation assay (resazurin), NCI-H2052; format: cell-based; settings: 72 hours incubation
Protocol: as §1, §2
(§3) The functional effect of compounds on cell proliferation was assessed using NCI-H2052 Tet-On shYAP_2371 pLenti6 MCAT_Luc and MKN-45/Ubc-luc cells by quantifying the reducing capacity of live cells using the redox indicator dye resazurin. […] For data analysis, the assay background value determined in wells containing medium, but no cells, was subtracted from all data points. […] The effect of a particular test compound concentration on cell proliferation/viability was expressed as percentage of day 0-corrected fluorescence reading obtained for cells treated with vehicle only (DMSO, final concentration 0.1%), which was set as 100%, whereas the fluorescence reading for wells containing medium only, but no cells, was set as −100%. Compound concentrations leading to half-maximal growth inhibition (GI50) were determined using standard four parameter curve fitting.

MKN-45/Ubc-luc cells [4] = assay: Proliferation assay (resazurin), MKN-45; format: cell-based; settings: 72 hours incubation
Protocol: As a specificity control, MKN-45 cells were stably transduced with a Ubc-Luc reporter construct, in which constitutive expression of firefly luciferase is driven by the promoter of the ubiquitin C housekeeping gene.
as §2, §3

MKN-45/Ubc-luc cells [5] = assay: Reporter gene specificity control (Ubc-luciferase), MKN-45
[6] = Homo sapiens, MKN-45, 24 h, read-out: Reporter gene assay MKN-45 IC50 [μM], MKN-45/Ubc-luc cells (YAP deleted, specificity control), 24 hours incubation

Chain of Avi-humanTEAD4 217-434 / Cy5 labeled humanYAP 60-100 (Q15561 217-434): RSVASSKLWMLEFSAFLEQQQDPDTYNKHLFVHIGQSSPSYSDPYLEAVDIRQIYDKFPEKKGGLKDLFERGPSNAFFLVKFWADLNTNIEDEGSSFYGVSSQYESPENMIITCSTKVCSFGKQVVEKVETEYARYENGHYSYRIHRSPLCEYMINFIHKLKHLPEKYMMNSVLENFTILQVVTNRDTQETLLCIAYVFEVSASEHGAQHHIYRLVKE

C[C@@H](O)CNC[C@@]1(c2ccccc2)Cc2c(cc(F)c(Cl)c2-c2c(C(N)=O)ccc(OC(F)F)c2F)O1 (atropisomer, axis not shown) [Example 74, 2-((2S,4S)-5-chloro-6-fluoro-2-((((R)-2-hydroxypropyl)amino)methyl)-2-phenyl-2,3-dihydrobenzofuran-4-yl)-4-(difluoromethoxy)-3-fluorobenzamide]
IC50 [1]: 33 nM | IC50 ([2]; Homo sapiens, NCI-H2052, 24 h): 419 nM | GI50 ([3]; Homo sapiens, NCI-H2052, 72 h): 674 nM | GI50 (MKN-45/Ubc-luc cells [4]; Homo sapiens): > 10000 nM | IC50 (MKN-45/Ubc-luc cells [5]; [6]): > 10 µM

NC(=O)c1ccc(OC(F)F)c(F)c1-c1c(Cl)c(F)cc2c1C[C@@](CN[C@H]1CC[C@@H](O)[C@H](F)C1)(c1ccccc1)O2 (atropisomer, axis not shown) [Example 81a, 2-((2S,4S)-5-chloro-6-fluoro-2-((((1S,3R,4R)-3-fluoro-4-hydroxycyclohexyl)amino)methyl)-2-phenyl-2,3-dihydrobenzofuran-4-yl)-4-(difluoromethoxy)-3-fluorobenzamide]
IC50 [1]: 33 nM | IC50 ([2]; Homo sapiens, NCI-H2052, 24 h): 231 nM | GI50 ([3]; Homo sapiens, NCI-H2052, 72 h): 467 nM | GI50 (MKN-45/Ubc-luc cells [4]; Homo sapiens): > 10000 nM | IC50 (MKN-45/Ubc-luc cells [5]; [6]): > 10 µM

NC(=O)c1ccc(OC(F)F)c(F)c1-c1c(Cl)c(F)cc2c1C[C@@](CN[C@H]1CC[C@@H](O)[C@H](F)C1)(c1ccccc1)O2 (atropisomer, axis not shown) [Example 81b, 2-((2S,4S)-5-chloro-6-fluoro-2-((((1R,3S,4S)-3-fluoro-4-hydroxycyclohexyl)amino)methyl)-2-phenyl-2,3-dihydrobenzofuran-4-yl)-4-(difluoromethoxy)-3-fluorobenzamide]
IC50 [1]: 32 nM | IC50 [2]: 316 nM | GI50 [3]: 571 nM | GI50 (MKN-45/Ubc-luc cells [4]): > 10000 nM | IC50 (MKN-45/Ubc-luc cells [5]; read-out: Reporter gene assay MKN-45 IC50, MKN-45/Ubc-luc cells (YAP deleted, specificity control), 24 hours incubation): > 10 µM

NC(=O)c1ccc(OC(F)F)c(F)c1-c1c(Cl)c(F)cc2c1C[C@@](CN[C@@H]1CCC[C@H](O)C1)(c1ccccc1)O2 (atropisomer, axis not shown) [Example 83, 2-((2S,4S)-5-chloro-6-fluoro-2-((((1R,3S)-3-hydroxycyclohexyl)amino)methyl)-2-phenyl-2,3-dihydrobenzofuran-4-yl)-4-(difluoromethoxy)-3-fluorobenzamide]
IC50 [1]: 24 nM | IC50 ([2]; Homo sapiens, NCI-H2052, 24 h): 394 nM | GI50 ([3]; Homo sapiens, NCI-H2052, 72 h): 503 nM | GI50 (MKN-45/Ubc-luc cells [4]; Homo sapiens): > 10000 nM | IC50 (MKN-45/Ubc-luc cells [5]; [6]): > 10 µM

COc1ccc(C(N)=O)c(-c2c(Cl)ccc3c2[C@H](O)[C@@](CN)(c2ccccc2)O3)c1F (atropisomer, axis not shown) [Example 86, 2-((2S,3S,4S)-2-(Aminomethyl)-5-chloro-3-hydroxy-2-phenyl-2,3-dihydrobenzofuran-4-yl)-3-fluoro-4-methoxybenzamide]
IC50 [1]: 3 nM | IC50 ([2]; Homo sapiens, NCI-H2052, 24 h): 119 nM | GI50 ([3]; Homo sapiens, NCI-H2052, 72 h): 129 nM | GI50 (MKN-45/Ubc-luc cells [4]; Homo sapiens): > 10000 nM | IC50 (MKN-45/Ubc-luc cells [5]; [6]): > 10 µM

COCCOc1ccc(C(N)=O)c(-c2c(Cl)ccc3c2[C@H](O)[C@@](CN)(c2ccccc2)O3)c1F (atropisomer, axis not shown) [Example 88, 2-((2S,3S,4S)-2-(aminomethyl)-5-chloro-3-hydroxy-2-phenyl-2,3-dihydrobenzofuran-4-yl)-3-fluoro-4-(2-methoxyethoxy)benzamide]
IC50 [1]: 7 nM | IC50 ([2]; Homo sapiens, NCI-H2052, 24 h): 91 nM | GI50 ([3]; Homo sapiens, NCI-H2052, 72 h): 242 nM | GI50 (MKN-45/Ubc-luc cells [4]; Homo sapiens): > 10000 nM | IC50 (MKN-45/Ubc-luc cells [5]; [6]): > 10 µM

COc1ccc(C(N)=O)c(-c2c(Cl)ccc3c2[C@H](O)[C@@](CN)(c2ccccn2)O3)c1F (atropisomer, axis not shown) [Example 89, 2-((2R,3S,4S)-2-(Aminomethyl)-5-chloro-3-hydroxy-2-(pyridin-2-yl)-2,3-dihydrobenzofuran-4-yl)-3-fluoro-4-methoxybenzamide]
IC50 [1]: 19 nM | IC50 ([2]; Homo sapiens, NCI-H2052, 24 h): 596 nM | GI50 ([3]; Homo sapiens, NCI-H2052, 72 h): 1600 nM | GI50 (MKN-45/Ubc-luc cells [4]; Homo sapiens): > 10000 nM | IC50 (MKN-45/Ubc-luc cells [5]; [6]): > 10 µM

COc1cccc([C@@]2(CN)Oc3ccc(Cl)c(-c4c(C(N)=O)ccc(OC(F)F)c4F)c3[C@@H]2O)n1 (atropisomer, axis not shown) [Example 90, 2-((2R,3S,4S)-2-(Aminomethyl)-5-chloro-3-hydroxy-2-(6-methoxypyridin-2-yl)-2,3-dihydrobenzofuran-4-yl)-4-(difluoromethoxy)-3-fluorobenzamide]
IC50 [1]: 22 nM | IC50 ([2]; Homo sapiens, NCI-H2052, 24 h): 1430 nM | GI50 ([3]; Homo sapiens, NCI-H2052, 72 h): 1700 nM | GI50 (MKN-45/Ubc-luc cells [4]; Homo sapiens): > 10000 nM | IC50 (MKN-45/Ubc-luc cells [5]; [6]): > 10 µM

COc1ccc(C(N)=O)c(-c2c(Cl)ccc3c2[C@H](O)[C@@](CN)(c2cccnc2OC)O3)c1F (atropisomer, axis not shown) [Example 91, 2-((2S,3S,4S)-2-(Aminomethyl)-5-chloro-3-hydroxy-2-(2-methoxypyridin-3-yl)-2,3-dihydrobenzofuran-4-yl)-3-fluoro-4-methoxybenzamide]
IC50 [1]: 22 nM | IC50 ([2]; Homo sapiens, NCI-H2052, 24 h): 960 nM | GI50 ([3]; Homo sapiens, NCI-H2052, 72 h): 1930 nM | GI50 (MKN-45/Ubc-luc cells [4]; Homo sapiens): > 10000 nM | IC50 (MKN-45/Ubc-luc cells [5]; [6]): > 10 µM

NC(=O)c1ccc(OC(F)F)c(F)c1-c1c(Cl)ccc2c1[C@H](O)[C@@](CNC1CCC1)(c1ccccc1)O2 (atropisomer, axis not shown) [Example 96, 2-((2S,3S,4S)-5-Chloro-2-((cyclobutylamino)methyl)-3-hydroxy-2-phenyl-2,3-dihydrobenzofuran-4-yl)-4-(difluoromethoxy)-3-fluorobenzamide]
IC50 [1]: 5 nM | IC50 ([2]; Homo sapiens, NCI-H2052, 24 h): 84 nM | GI50 ([3]; Homo sapiens, NCI-H2052, 72 h): 188 nM | GI50 (MKN-45/Ubc-luc cells [4]; Homo sapiens): > 10000 nM | IC50 (MKN-45/Ubc-luc cells [5]; [6]): > 10 µM

COc1ccc(C(N)=O)c(-c2c(Cl)c(F)cc3c2[C@H](O)[C@@](CN)(c2ccccc2)O3)c1F (atropisomer, axis not shown) [Example 97, 2-((2S,3S,4S)-2-(Aminomethyl)-5-chloro-6-fluoro-3-hydroxy-2-phenyl-2,3-dihydrobenzofuran-4-yl)-3-fluoro-4-methoxybenzamide]
IC50 [1]: 4 nM | IC50 ([2]; Homo sapiens, NCI-H2052, 24 h): 65 nM | GI50 ([3]; Homo sapiens, NCI-H2052, 72 h): 117 nM | GI50 (MKN-45/Ubc-luc cells [4]; Homo sapiens): > 10000 nM | IC50 (MKN-45/Ubc-luc cells [5]; [6]): > 10 µM

NC(=O)c1ccc(OCCO)c(F)c1-c1c(Cl)c(F)cc2c1[C@H](O)[C@@](CNC1CCC1)(c1ccccc1)O2 (atropisomer, axis not shown) [Example 99, 2-((2S,3S,4S)-5-Chloro-2-((cyclobutylamino)methyl)-6-fluoro-3-hydroxy-2-phenyl-2,3-dihydrobenzofuran-4-yl)-3-fluoro-4-(2-hydroxyethoxy)benzamide]
IC50 [1]: 2 nM | IC50 ([2]; Homo sapiens, NCI-H2052, 24 h): 23 nM | GI50 ([3]; Homo sapiens, NCI-H2052, 72 h): 26 nM | GI50 (MKN-45/Ubc-luc cells [4]; Homo sapiens): > 10000 nM | IC50 (MKN-45/Ubc-luc cells [5]; [6]): > 10 µM

C[C@H]1c2c(ccc(Cl)c2-c2c(C(N)=O)ccc(OC(F)F)c2F)O[C@]1(CN)c1ccccc1 (atropisomer, axis not shown) [Example 103, 2-((2S,3S,4S)-2-(aminomethyl)-5-chloro-3-methyl-2-phenyl-2,3-dihydrobenzofuran-4-yl)-4-(difluoromethoxy)-3-fluorobenzamide]
IC50 [1]: 5 nM | IC50 ([2]; Homo sapiens, NCI-H2052, 24 h): 108 nM | GI50 ([3]; Homo sapiens, NCI-H2052, 72 h): 172 nM | GI50 (MKN-45/Ubc-luc cells [4]; Homo sapiens): > 10000 nM | IC50 (MKN-45/Ubc-luc cells [5]; [6]): > 10 µM

COCCOc1ccc(C(N)=O)c(-c2c(Cl)c(F)cc3c2[C@H](C)[C@@](CN)(c2ccccc2)O3)c1F (atropisomer, axis not shown) [Example 106, 2-((2S,3S,4S)-2-(aminomethyl)-5-chloro-6-fluoro-3-methyl-2-phenyl-2,3-dihydrobenzofuran-4-yl)-3-fluoro-4-(2-methoxyethoxy)benzamide]
IC50 [1]: < 1 nM | IC50 ([2]; Homo sapiens, NCI-H2052, 24 h): 14 nM | GI50 ([3]; Homo sapiens, NCI-H2052, 72 h): 13 nM | GI50 (MKN-45/Ubc-luc cells [4]; Homo sapiens): > 10000 nM | IC50 (MKN-45/Ubc-luc cells [5]; [6]): > 10 µM

COc1ccc(C(N)=O)c(-c2c(Cl)c(F)cc3c2[C@H](C)[C@@](CN)(c2ccccn2)O3)c1F (atropisomer, axis not shown) [Example 109, 2-((2R,3S,4S)-2-(aminomethyl)-5-chloro-6-fluoro-3-methyl-2-(pyridin-2-yl)-2,3-dihydrobenzofuran-4-yl)-3-fluoro-4-methoxybenzamide]
IC50 [1]: 3 nM | IC50 ([2]; Homo sapiens, NCI-H2052, 24 h): 75 nM | GI50 ([3]; Homo sapiens, NCI-H2052, 72 h): 86 nM | GI50 (MKN-45/Ubc-luc cells [4]; Homo sapiens): > 10000 nM | IC50 (MKN-45/Ubc-luc cells [5]; [6]): > 10 µM
